In patent US6689936B1, “Method for evaluating a compound for its effect on skin” (The General Hospital Corp., priority 1997, dated 2004):

Key:
[1] = test system: human VEGF promoter driven GFP reporter; assay: Induction of epidermal GFP by topical TPA in VEGF-GFP transgenic mouse skin (fluorescence microscopy of skin biopsy sections); assay type: in vivo; conditions: single dose of 5 μg TPA in acetone, topical on back skin, biopsy after 12 hours; acetone alone showed only basal levels
Procedure: Tissue preparation for GFP detection and epimicroscopic observation solutions washed out or diffused GFP-derived fluorescence from the site of GFP expression. Ultimately, a freshly dissected, unfixed tissue block, was directly cut into 12 μm thick frozen sections using a cryostat. Epifluorescent microscopic observation was performed immediately after sectioning, without mounting medium or extended slide storage, using FITC/TRITC double excitation and an emission filter Chroma, *VT) to distinguish the GFP-derived fluorescent signal from tissue autofluorescence.
For induction of VEGF mRNA by TPA, a single dose of 5 μg TPA in acetone was topically applied to back skin of transgenic mice and skin biopsy samples were collected after 12 hours.
Induction of epidermal GFP by phorbolester application was also examined. […] This signal seemed to localize to the basoplateral surface of the epithelium rather than in either the keratinocyt cytosol or nucleus.

[2] = test system: human VEGF promoter driven GFP reporter; assay: Direct confocal detection of GFP induction in intact skin of living hairless VEGF-GFP transgenic mice; assay type: in vivo; conditions: TPA applied to back skin of anaesthetized hairless VEGF-GFP mouse, after 12hrs, compared with acetone on the same individual
Procedure: To examine whole intact skin on living transgenic mouse with confocal microscope, hairless VEGF-GFP transgenic mice were anaesthetized with avertin by intraperitoneal injection. They were placed directly on the petri dish with dorsal position. TPA or acetone treatment was performed on the back skin same as described above marking treated area with an ink to ease the orientation of the skin. Sections or intact skin of the mice were analyzed using Leica DM IRBE inverted microscope and Leica TCS NT4D confocal microscope system with band pass filter 530/30 nm, detecting emission at wavelengths between 515-545 nm.
To test whether the induction of GFP is directly detected in the skin of a living VEGF-GFP transgenic mouse, acetone or TPA applied skin of the transgenic hairless mouse (same individual) was directly examined by confocal imaging under anaesthetized condition. […] X-Z confocal imaging confirmed that this signal was within the basal layer of the epidermis.

VEGF = conditions: topical application of phorbolesters; cited from earlier work

In the case of `CCCCCCCCCCCCCC(=O)O[C@@H]1[C@@H](C)[C@@]2(O)[C@@H](C=C(CO)C[C@]3(O)C(=O)C(C)=C[C@@H]23)[C@H]2C(C)(C)[C@]12OC(C)=O` [TPA], the “GFP fluorescent signal in epidermis of transgenic skin” value [1] is listed as “Accumulation of fluorescent signal was observed”, the “GFP fluorescence positive area in living epidermis (confocal imaging)” value [2] is listed as “increase of fluorescence positive area” and the “expression of VEGF in epidermal keratinocytes” value (VEGF) is listed as “up-regulated”.
